Assay results: patent US20240287007A1, “N-(1,3,4-OXADIAZOL-2-YL)PHENYLCARBOXAMIDES AS HERBICIDES” (BAYER AKTIENGESELLSCHAFT, priority 2021, published 2024)

Experiments:
Type in all cases: in vivo
[1] = system: ABUTH (Abutylon threophrasti); experiment: Post-emergence herbicidal action against ABUTH; conditions: visual assessment after about 3 weeks
Method: (§1) Seeds of monocotyledonous and dicotyledonous weed and crop plants are laid out in sandy loam soil in wood-fiber pots, covered with soil and cultivated in a greenhouse under good growth conditions. 2 to 3 weeks after sowing, the trial plants are treated at the one-leaf stage. The compounds of the invention, formulated in the form of wettable powders (WP) or as emulsion concentrates (EC), are then sprayed onto the green parts of the plants as aqueous suspension or emulsion at a water application rate equating to 600 to 800 l/ha with addition of 0.2% wetting agent. After the test plants have been left to stand in the greenhouse under optimal growth conditions for about 3 weeks, the action of the preparations is assessed visually in comparison to untreated controls (herbicidal action in percent (%): 100% activity=the plants have died, 0% activity=like control plants).

[2] = system: ALOMY (Alopecurus myosuroides); experiment: Post-emergence herbicidal action against ALOMY; conditions: visual assessment after about 3 weeks
Method: as §1

[3] = system: AMARE (Amaranthus retroflexus); experiment: Post-emergence herbicidal action against AMARE; conditions: visual assessment after about 3 weeks
Method: as §1

[4] = system: DIGSA (Digitaria sanguinalis); experiment: Post-emergence herbicidal action against DIGSA; conditions: visual assessment after about 3 weeks
Method: as §1

LOLRI (Lolium rigidum) [5] = experiment: Post-emergence herbicidal action against LOLRI; conditions: visual assessment after about 3 weeks
Method: as §1

[6] = system: MATIN (Matricaria inodora); experiment: Post-emergence herbicidal action against MATIN; conditions: visual assessment after about 3 weeks
Method: as §1

[7] = system: PHBPU (Pharbitis purpurea); experiment: Post-emergence herbicidal action against PHBPU; conditions: visual assessment after about 3 weeks
Method: as §1

[8] = system: POLCO (Polygonum convolvulus); experiment: Post-emergence herbicidal action against POLCO; conditions: visual assessment after about 3 weeks
Method: as §1

SETVI (Setaria viridis) [9] = experiment: Post-emergence herbicidal action against SETVI; conditions: visual assessment after about 3 weeks
Method: as §1

VERPE (Veronica persica) [10] = experiment: Post-emergence herbicidal action against VERPE; conditions: visual assessment after about 3 weeks
Method: as §1

VIOTR (Viola tricolor) [11] = experiment: Post-emergence herbicidal action against VIOTR; conditions: visual assessment after about 3 weeks
Method: as §1

KCHSC (Kochia scoparia) [12] = experiment: Post-emergence herbicidal action against KCHSC; conditions: visual assessment after about 3 weeks
Method: as §1

[13] = system: ABUTH (Abutylon threophrasti); experiment: Pre-emergence herbicidal effect against ABUTH; conditions: 80 g/ha, scored visually after 3 weeks
Excerpt: (§2) Seeds of monocotyledonous and dicotyledonous weed plants and crop plants are laid out in sandy loam soil in wood-fiber pots and covered with soil. The compounds of the invention, formulated in the form of wettable powders (WP) or as emulsion concentrates (EC), are then applied to the surface of the covering soil as aqueous suspension or emulsion at a water application rate equating to 600 to 800 l/ha with addition of 0.2% wetting agent. After the treatment, the pots are placed in a greenhouse and kept under good growth conditions for the trial plants. The damage to the test plants is scored visually after a test period of 3 weeks by comparison with untreated controls (herbicidal activity in percent (%): 100% activity=the plants have died, 0% activity=like control plants).

[14] = system: ALOMY (Alopecurus myosuroides); experiment: Pre-emergence herbicidal effect against ALOMY; conditions: scored visually after 3 weeks
Excerpt: as §2

[15] = system: AMARE (Amaranthus retroflexus); experiment: Pre-emergence herbicidal effect against AMARE; conditions: scored visually after 3 weeks
Excerpt: as §2

AVEFA (Avena fatua) = experiment: Pre-emergence herbicidal effect against AVEFA; conditions: scored visually after 3 weeks
Excerpt: as §2

[16] = system: DIGSA (Digitaria sanguinalis); experiment: Pre-emergence herbicidal effect against DIGSA; conditions: scored visually after 3 weeks
Excerpt: as §2

[17] = system: ECHCG (Echinochloa crus-galli); experiment: Pre-emergence herbicidal effect against ECHCG; conditions: scored visually after 3 weeks
Excerpt: as §2

LOLRI (Lolium rigidum) [18] = experiment: Pre-emergence herbicidal effect against LOLRI; conditions: scored visually after 3 weeks
Excerpt: as §2

[19] = system: MATIN (Matricaria inodora); experiment: Pre-emergence herbicidal effect against MATIN; conditions: scored visually after 3 weeks
Excerpt: as §2

[20] = system: PHBPU (Pharbitis purpurea); experiment: Pre-emergence herbicidal effect against PHBPU; conditions: 80 g/ha, scored visually after 3 weeks
Excerpt: as §2

[21] = system: POLCO (Polygonum convolvulus); experiment: Pre-emergence herbicidal effect against POLCO; conditions: scored visually after 3 weeks
Excerpt: as §2

SETVI (Setaria viridis) [22] = experiment: Pre-emergence herbicidal effect against SETVI; conditions: scored visually after 3 weeks
Excerpt: as §2

VERPE (Veronica persica) [23] = experiment: Pre-emergence herbicidal effect against VERPE; conditions: scored visually after 3 weeks
Excerpt: as §2

VIOTR (Viola tricolor) [24] = experiment: Pre-emergence herbicidal effect against VIOTR; conditions: scored visually after 3 weeks
Excerpt: as §2

KCHSC (Kochia scoparia) [25] = experiment: Pre-emergence herbicidal effect against KCHSC; conditions: scored visually after 3 weeks
Excerpt: as §2

C[S+]([O-])c1c(OC(F)(F)F)ccc(C(=O)Nc2nnco2)c1Cl (racemic) [Example 1-32, 2-chloro-3-(methylsulfinyl)-N-(1,3,4-oxadiazol-2-yl)-4-(trifluoromethoxy)benzamide]
90%: Post-emergence effect at 20 g/ha against ABUTH in % ([1]; 20 g/ha) | Post-emergence effect at 80 g/ha against ALOMY in % ([2]; 80 g/ha) | Post-emergence effect at 20 g/ha against DIGSA in % ([4]; 20 g/ha) | Post-emergence effect at 80 g/ha against DIGSA in % ([4]; 80 g/ha) | Post-emergence effect at 80 g/ha against LOLRI in % (LOLRI (Lolium rigidum) [5]) | Post-emergence effect at 20 g/ha against PHBPU in % ([7]; 20 g/ha) | Post-emergence effect at 20 g/ha against POLCO in % ([8]; 20 g/ha) | Post-emergence effect at 20 g/ha against VERPE in % (VERPE (Veronica persica) [10]; 20 g/ha) | Pre-emergence effect at 20 g/ha against LOLRI in % (LOLRI (Lolium rigidum) [18]; 20 g/ha) | Pre-emergence effect at 80 g/ha against LOLRI in % (LOLRI (Lolium rigidum) [18]; 80 g/ha) | Pre-emergence effect at 80 g/ha against PHBPU in % [20] | Pre-emergence effect at 20 g/ha against POLCO in % ([21]; 20 g/ha) | Pre-emergence effect at 80 g/ha against POLCO in % ([21]; 80 g/ha) | Pre-emergence effect at 20 g/ha against SETVI in % (SETVI (Setaria viridis) [22]; 20 g/ha) | Pre-emergence effect at 80 g/ha against VERPE in % (VERPE (Veronica persica) [23]; 80 g/ha)
100%: Post-emergence effect at 80 g/ha against ABUTH in % ([1]; 80 g/ha) | Post-emergence effect at 20 g/ha against AMARE in % ([3]; 20 g/ha) | Post-emergence effect at 80 g/ha against AMARE in % ([3]; 80 g/ha) | Post-emergence effect at 20 g/ha against MATIN in % ([6]; 20 g/ha) | Post-emergence effect at 80 g/ha against MATIN in % ([6]; 80 g/ha) | Post-emergence effect at 80 g/ha against PHBPU in % ([7]; 80 g/ha) | Post-emergence effect at 80 g/ha against POLCO in % ([8]; 80 g/ha) | Post-emergence effect at 20 g/ha against SETVI in % (SETVI (Setaria viridis) [9]; 20 g/ha) | Post-emergence effect at 80 g/ha against SETVI in % (SETVI (Setaria viridis) [9]; 80 g/ha) | Post-emergence effect at 80 g/ha against VERPE in % (VERPE (Veronica persica) [10]; 80 g/ha) | Post-emergence effect at 20 g/ha against VIOTR in % (VIOTR (Viola tricolor) [11]; 20 g/ha) | Post-emergence effect at 80 g/ha against VIOTR in % (VIOTR (Viola tricolor) [11]; 80 g/ha) | Post-emergence effect at 20 g/ha against KCHSC in % (KCHSC (Kochia scoparia) [12]; 20 g/ha) | Post-emergence effect at 80 g/ha against KCHSC in % (KCHSC (Kochia scoparia) [12]; 80 g/ha) | Pre-emergence effect at 80 g/ha against ABUTH in % [13] | Pre-emergence effect at 80 g/ha against ALOMY in % ([14]; 80 g/ha) | Pre-emergence effect at 20 g/ha against AMARE in % ([15]; 20 g/ha) | Pre-emergence effect at 80 g/ha against AMARE in % ([15]; 80 g/ha) | Pre-emergence effect at 80 g/ha against A VEFA in % (AVEFA (Avena fatua); 80 g/ha) | Pre-emergence effect at 20 g/ha against DIGSA in % ([16]; 20 g/ha) | Pre-emergence effect at 80 g/ha against DIGSA in % ([16]; 80 g/ha) | Pre-emergence effect at 20 g/ha against ECHCG in % ([17]; 20 g/ha) | Pre-emergence effect at 80 g/ha against ECHCG in % ([17]; 80 g/ha) | Pre-emergence effect at 20 g/ha against MATIN in % ([19]; 20 g/ha) | Pre-emergence effect at 80 g/ha against MATIN in % ([19]; 80 g/ha) | Pre-emergence effect at 80 g/ha against SETVI in % (SETVI (Setaria viridis) [22]; 80 g/ha) | Pre-emergence effect at 20 g/ha against VIOTR in % (VIOTR (Viola tricolor) [24]; 20 g/ha) | Pre-emergence effect at 80 g/ha against VIOTR in % (VIOTR (Viola tricolor) [24]; 80 g/ha) | Pre-emergence effect at 20 g/ha against KCHSC in % (KCHSC (Kochia scoparia) [25]; 20 g/ha) | Pre-emergence effect at 80 g/ha against KCHSC in % (KCHSC (Kochia scoparia) [25]; 80 g/ha)
80%: Post-emergence effect at 20 g/ha against ALOMY in % ([2]; 20 g/ha) | Pre-emergence effect at 20 g/ha against ALOMY in % ([14]; 20 g/ha) | Pre-emergence effect at 20 g/ha against AVEFA in % (AVEFA (Avena fatua); 20 g/ha) | Pre-emergence effect at 20 g/ha against VERPE in % (VERPE (Veronica persica) [23]; 20 g/ha)
